Measured values published in US7138361B2, “Herbicidal heterocycles” (E. I. du Pont de Nemours and Company, priority 2000, dated 2006).

What was measured:
Format in all cases: in vivo
corn (Zea mays) [1] = assay: Test B preemergence
How it was run: (§1)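 Pre: seeded pots sprayed, chemical in non-phytotoxic solvent/surfactant mix. Post: plants 2–18 cm, 1–4 leaf, same formulation. Greenhouse 13–15 d; visual % control vs untreated, 0–100 scale.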

[2] = system: lambsquarters (Chenopodium album); assay: Test B preemergence
How it was run: as §1

[3] = system: giant foxtail (Setaria faberii); assay: Test B preemergence
How it was run: as §1

rice (Oryza saliva) [4] = assay: Test B preemergence
How it was run: as §1

[5] = system: crabgrass (Digitaria sanguinalis); assay: Test B preemergence
How it was run: as §1

[6] = system: barnyardgrass (Echinochloa crus-galli); assay: Test B preemergence
How it was run: as §1

[7] = system: velvetleaf (Abutilon theophrasti); assay: Test B preemergence
How it was run: as §1

[8] = system: pigweed (Amaranthus retroflexus); assay: Test B preemergence
How it was run: as §1

[9] = system: Surinam grass (Brachiaria decumbens); assay: Test B preemergence
How it was run: as §1

[10] = system: morning glory (Ipomoea hederacea); assay: Test B preemergence
How it was run: as §1

[11] = system: cocklebur (Xanthium strumarium); assay: Test B preemergence
How it was run: as §1

Sunflower = assay: Test C preemergence; settings: Rate 125 g/ha, scale 0 to 100, 0 no effect, 100 complete control
rice (Oryza saliva) [12] = assay: Test C flooded paddy test; settings: for Rice plant response rating: Flooded Paddy, scale 0 to 100, 0 no effect, 100 complete control; for Plant response rating, Rice: flooded paddy test, scale 0 to 100 (0 no effect, 100 complete control)
How it was run: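 Flooded paddy, 2-leaf stage at treatment. Readout: visual % control vs untreated, 0–100, at 12–14 d in greenhouse.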

Nightshade = assay: Test C preemergence; settings: Rate 250 g/ha, visual evaluation after 12 to 14 days
corn (Zea mays) [13] = assay: Test B postemergence; settings: 13 to 15 days
How it was run: as §1

[14] = system: lambsquarters (Chenopodium album); assay: Test B postemergence; settings: 13 to 15 days
How it was run: as §1

[15] = system: giant foxtail (Setaria faberii); assay: Test B postemergence; settings: 13 to 15 days
How it was run: as §1

[16] = system: crabgrass (Digitaria sanguinalis); assay: Test B postemergence; settings: 13 to 15 days
How it was run: as §1

[17] = system: barnyardgrass (Echinochloa crus-galli); assay: Test B postemergence; settings: 13 to 15 days
How it was run: as §1

wild oat (Avena fatua) = assay: Test B postemergence; settings: 13 to 15 days
How it was run: as §1

[18] = system: wheat (Triticum aestivum); assay: Test B postemergence; settings: 13 to 15 days
How it was run: as §1

[19] = system: velvetleaf (Abutilon theophrasti); assay: Test B postemergence; settings: 13 to 15 days
How it was run: as §1

[20] = system: pigweed (Amaranthus retroflexus); assay: Test B postemergence; settings: 13 to 15 days
How it was run: as §1

[21] = system: blackgrass (Alopecurus myosuroides); assay: Test B postemergence; settings: 13 to 15 days
How it was run: as §1

[22] = system: Surinam grass (Brachiaria decumbens); assay: Test B postemergence; settings: 13 to 15 days
How it was run: as §1

[23] = system: morning glory (Ipomoea hederacea); assay: Test B postemergence; settings: 13 to 15 days
How it was run: as §1

[24] = system: cocklebur (Xanthium strumarium); assay: Test B postemergence; settings: 13 to 15 days
How it was run: as §1

[25] = Preemergence, Rate 500 g/ha, scale 0 to 100, 0 no effect, 100 complete control
[26] = preemergence, Rate 125 g/ha, scale of 0 to 100 where 0 is no effect and 100 is complete control, 13 to 15 days
[27] = Rate 125 g/ha, scale 0 (no effect) to 100 (complete control)
[28] = Rate 500 g/ha, scale 0 to 100, 0 is no effect, 100 is complete control

Compound: O=C1C(n2ccc(C3CCCCC3)n2)SCN1c1cccc(OC(F)(F)F)c1 (stereo not drawn) [Compound 50]
- Plant response rating, Corn (corn (Zea mays) [1]; [25]): 0
- Plant response rating, Corn (corn (Zea mays) [1]; [26]): 0
- Plant response rating, Lambsquarters [2, 25]: 90
- Plant response rating, Lambsquarters [2, 26]: 0
- Plant response rating, Foxtail, Giant [3, 25]: 100
- Plant response rating, Foxtail, Giant [3, 26]: 20
- Plant response rating, Rice (rice (Oryza saliva) [4]; [25]): 0
- Plant response rating, Rice (rice (Oryza saliva) [4]; [26]): 0
- Plant response rating, Crabgrass [5, 25]: 100
- Plant response rating, Crabgrass [5, 26]: 100
- Plant response rating, Barnyardgrass [6, 25]: 90
- Plant response rating, Barnyardgrass [6, 26]: 0
- Plant response rating, Velvetleaf [7, 25]: 100
- Plant response rating, Velvetleaf [7, 26]: 100
- Plant response rating, Pigweed [8, 25]: 0
- Plant response rating, Pigweed [8, 26]: 0
- Plant response rating, Surinam grass [9, 25]: 30
- Plant response rating, Surinam grass [9, 26]: 0
- Plant response rating, Morningglory [10, 25]: 0
- Plant response rating, Morningglory [10, 26]: 0
- Plant response rating, Cocklebur [11, 25]: 0
- Plant response rating, Cocklebur [11, 26]: 0
- Plant response rating, Sunflower (Sunflower): 30
- Rice plant response rating (rice (Oryza saliva) [12]; Rate 250 g/ha): 0
- Rice plant response rating (rice (Oryza saliva) [12]; Rate 500 g/ha): 50
- Plant response rating, Rice (rice (Oryza saliva) [12]; Rate 62 g/ha): 0
- Plant response rating, Rice (rice (Oryza saliva) [12]; Rate 125 g/ha): 0
- Plant response rating (0 to 100), Nightshade (Nightshade): 0
- Plant response rating, Corn (corn (Zea mays) [13]; [27]): 0
- Plant response rating, Corn (corn (Zea mays) [13]; [28]): 0
- Plant response rating, Lambsquarters [14, 27]: 70
- Plant response rating, Lambsquarters [14, 28]: 80
- Plant response rating, Foxtail, Giant [15, 27]: 0
- Plant response rating, Foxtail, Giant [15, 28]: 50
- Plant response rating, Crabgrass [16, 27]: 30
- Plant response rating, Crabgrass [16, 28]: 50
- Plant response rating, Barnyardgrass [17, 27]: 0
- Plant response rating, Barnyardgrass [17, 28]: 90
- Plant response rating, Wild Oat (wild oat (Avena fatua); [27]): 0
- Plant response rating, Wild Oat (wild oat (Avena fatua); [28]): 0
- Plant response rating, Wheat [18, 27]: 0
- Plant response rating, Wheat [18, 28]: 0
- Plant response rating, Velvetleaf [19, 27]: 0
- Plant response rating, Velvetleaf [19, 28]: 0
- Plant response rating, Pigweed [20, 27]: 0
- Plant response rating, Pigweed [20, 28]: 0
- Plant response rating, Blackgrass [21, 27]: 0
- Plant response rating, Blackgrass [21, 28]: 0
- Plant response rating, Surinam grass [22, 27]: 0
- Plant response rating, Surinam grass [22, 28]: 0
- Plant response rating, Morningglory [23, 27]: 0
- Plant response rating, Morningglory [23, 28]: 0
- Plant response rating, Cocklebur [24, 27]: 0
- Plant response rating, Cocklebur [24, 28]: 50
